From ChEMBL document CHEMBL5303573, “Mapping human microbiome drug metabolism by gut bacteria and their genes” (Nature, 2019)

Columns and labels:
[1] = The drug is tested on Bacteroides cellulosilyticus strain: DSM14838 for biotransformation. The drug concentrations were measured before and after a 12-h incubation by liquid-chromatography-coupled mass spectrometry (LC–MS); conditions: 2 µM
[2] = bacteroides fragilis, 12 h, 2 µM
Description: The drug is tested on Bacteroides fragilis strain: DS-208 for biotransformation. The drug concentrations were measured before and after a 12-h incubation by liquid-chromatography-coupled mass spectrometry (LC–MS)

[3] = The drug is tested on Eubacterium ventriosum strain: ATCC27560 for biotransformation. The drug concentrations were measured before and after a 12-h incubation by liquid-chromatography-coupled mass spectrometry (LC–MS); format: ADME; set-up: dose 2 uM, timepoint 0 vs 12 hours; conditions: 2 µM
[4] = bacteroides fragilis, 12 h, 2 µM; remark: listed apart in the source
Description: The drug is tested on Bacteroides fragilis strain: 3397 (T10) for biotransformation. The drug concentrations were measured before and after a 12-h incubation by liquid-chromatography-coupled mass spectrometry (LC–MS)

[5] = The drug is tested on Anaerotruncus colihominis strain: DSM17241 for biotransformation. The drug concentrations were measured before and after a 12-h incubation by liquid-chromatography-coupled mass spectrometry (LC–MS); conditions: 2 µM
[6] = The drug is tested on Anaerococcus hydrogenalis strain: DSM7454 for biotransformation. The drug concentrations were measured before and after a 12-h incubation by liquid-chromatography-coupled mass spectrometry (LC–MS); conditions: 2 µM
[7] = The drug is tested on Clostridium scindens strain: ATCC35704 for biotransformation. The drug concentrations were measured before and after a 12-h incubation by liquid-chromatography-coupled mass spectrometry (LC–MS); conditions: 2 µM
[8] = The drug is tested on Enterobacter cancerogenus strain: ATCC35316 for biotransformation. The drug concentrations were measured before and after a 12-h incubation by liquid-chromatography-coupled mass spectrometry (LC–MS); conditions: 2 µM
[9] = bacteroides thetaiotaomicron, 12 h, 2 µM
Description: The drug is tested on Bacteroides thetaiotaomicron strain: 3731 for biotransformation. The drug concentrations were measured before and after a 12-h incubation by liquid-chromatography-coupled mass spectrometry (LC–MS)

[10] = The drug is tested on Alistipes indistinctus strain: DSM22520 for biotransformation. The drug concentrations were measured before and after a 12-h incubation by liquid-chromatography-coupled mass spectrometry (LC–MS); conditions: 2 µM
[11] = The drug is tested on Bifidobacterium breve strain: DSM20213 for biotransformation. The drug concentrations were measured before and after a 12-h incubation by liquid-chromatography-coupled mass spectrometry (LC–MS); conditions: 2 µM
[12] = The drug is tested on Eubacterium hallii strain: DSM3353 for biotransformation. The drug concentrations were measured before and after a 12-h incubation by liquid-chromatography-coupled mass spectrometry (LC–MS); conditions: anaerobutyricum hallii, 2 µM
[13] = The drug is tested on Bacteroides coprophilus strain: DSM18228 for biotransformation. The drug concentrations were measured before and after a 12-h incubation by liquid-chromatography-coupled mass spectrometry (LC–MS); conditions: 2 µM
[14] = parabacteroides johnsonii, 12 h, 2 µM
Description: The drug is tested on Parabacteroides johnsonii strain: DSM18315 for biotransformation. The drug concentrations were measured before and after a 12-h incubation by liquid-chromatography-coupled mass spectrometry (LC–MS)

[15] = The drug is tested on Bacteroides vulgatus strain: ATCC8482 for biotransformation. The drug concentrations were measured before and after a 12-h incubation by liquid-chromatography-coupled mass spectrometry (LC–MS); conditions: phocaeicola vulgatus, 2 µM
[16] = The drug is tested on Ruminococcus gnavus strain: ATCC29149 for biotransformation. The drug concentrations were measured before and after a 12-h incubation by liquid-chromatography-coupled mass spectrometry (LC–MS); conditions: mediterraneibacter gnavus, 2 µM
[17] = bacteroides stercoris, 12 h, 2 µM
Description: The drug is tested on Bacteroides stercoris strain: ATCC43183 for biotransformation. The drug concentrations were measured before and after a 12-h incubation by liquid-chromatography-coupled mass spectrometry (LC–MS)

[18] = The drug is tested on Ruminococcus lactaris strain: ATCC29176 for biotransformation. The drug concentrations were measured before and after a 12-h incubation by liquid-chromatography-coupled mass spectrometry (LC–MS); conditions: 2 µM
[19] = The drug is tested on Bacteroides finegoldii strain: DSM17565 for biotransformation. The drug concentrations were measured before and after a 12-h incubation by liquid-chromatography-coupled mass spectrometry (LC–MS); conditions: 2 µM
[20] = parabacteroides distasonis, 12 h, 2 µM
Description: The drug is tested on Parabacteroides distasonis strain: ATCC8503 for biotransformation. The drug concentrations were measured before and after a 12-h incubation by liquid-chromatography-coupled mass spectrometry (LC–MS)

| Bacterial Biotransformation [1] | Bacterial Biotransformation [2] | Bacterial Biotransformation [3] | Bacterial Biotransformation [4] | Bacterial Biotransformation [5] | Bacterial Biotransformation [6] | Bacterial Biotransformation [7] | Bacterial Biotransformation [8] | Bacterial Biotransformation [9] | Bacterial Biotransformation [10] | Bacterial Biotransformation [11] | Bacterial Biotransformation [12] | Bacterial Biotransformation [13] | Bacterial Biotransformation [14] | Bacterial Biotransformation [16] | Bacterial Biotransformation [17] | Bacterial Biotransformation [18] | Bacterial Biotransformation [19] | Bacterial Biotransformation [20] | SMILES | Bacterial Biotransformation [15] |
| --- | --- | --- | --- | --- | --- | --- | --- | --- | --- | --- | --- | --- | --- | --- | --- | --- | --- | --- | --- | --- |
| Compound NOT metabolized | – | Compound NOT metabolized | Compound NOT metabolized | Compound NOT metabolized | Compound NOT metabolized | Compound NOT metabolized | Compound NOT metabolized | Compound NOT metabolized | Compound NOT metabolized | Compound NOT metabolized | Compound NOT metabolized | Compound NOT metabolized | Compound NOT metabolized | Compound NOT metabolized | Compound NOT metabolized | Compound NOT metabolized | Compound NOT metabolized | – | CN(C(=O)CN(CCO)CC(=O)N(C)C(C)(C)Cc1ccccc1)C(C)(C)Cc1ccccc1 [OXETHAZAINE] | Compound NOT metabolized |
| Compound NOT metabolized | Compound metabolized | Compound NOT metabolized | Compound metabolized | Compound metabolized | Compound NOT metabolized | Compound metabolized | Compound NOT metabolized | Compound NOT metabolized | Compound NOT metabolized | Compound NOT metabolized | – | Compound NOT metabolized | Compound metabolized | Compound NOT metabolized | Compound metabolized | Compound NOT metabolized | Compound metabolized | Compound metabolized | Cc1nc(Nc2ncc(C(=O)Nc3c(C)cccc3Cl)s2)cc(N2CCN(CCO)CC2)n1.O [DASATINIB] | – |
| Compound NOT metabolized | Compound NOT metabolized | Compound metabolized | Compound NOT metabolized | Compound NOT metabolized | Compound NOT metabolized | Compound NOT metabolized | Compound NOT metabolized | Compound NOT metabolized | Compound NOT metabolized | Compound NOT metabolized | Compound NOT metabolized | Compound NOT metabolized | Compound NOT metabolized | Compound NOT metabolized | Compound NOT metabolized | Compound NOT metabolized | Compound NOT metabolized | Compound NOT metabolized | O=C1[C@H](CC[C@H](O)c2ccc(F)cc2)[C@@H](c2ccc(O)cc2)N1c1ccc(F)cc1 [EZETIMIBE] | – |

| SMILES | Bacterial Biotransformation [1] | Bacterial Biotransformation [2] | Bacterial Biotransformation [3] | Bacterial Biotransformation [4] | Bacterial Biotransformation [5] | Bacterial Biotransformation [6] | Bacterial Biotransformation [7] | Bacterial Biotransformation [8] | Bacterial Biotransformation [9] | Bacterial Biotransformation [10] | Bacterial Biotransformation [11] | Bacterial Biotransformation [12] | Bacterial Biotransformation [13] | Bacterial Biotransformation [14] | Bacterial Biotransformation [16] | Bacterial Biotransformation [17] | Bacterial Biotransformation [18] | Bacterial Biotransformation [19] | Bacterial Biotransformation [20] | Bacterial Biotransformation [15] |
| --- | --- | --- | --- | --- | --- | --- | --- | --- | --- | --- | --- | --- | --- | --- | --- | --- | --- | --- | --- | --- |
| COc1ccc2c3c1O[C@H]1C[C@@H](O)C=C[C@@]31CCN(C)C2 [GALANTAMINE] | Compound NOT metabolized | Compound metabolized | Compound NOT metabolized | Compound metabolized | Compound NOT metabolized | Compound NOT metabolized | Compound NOT metabolized | Compound NOT metabolized | Compound metabolized | Compound metabolized | Compound NOT metabolized | Compound NOT metabolized | Compound metabolized | Compound NOT metabolized | Compound NOT metabolized | Compound NOT metabolized | Compound NOT metabolized | – | – | Compound metabolized |
